Reference: patent publication US7282347B2, “Method for extracting quantitative information relating to interactions between cellular components” (Fisher Bioimage APS, priority 2000, dated 2007)
“Also recorded” adds a separate entry of the source. Where two headings read alike, the source gives them in different places.

What was measured:
PKAcat-GFP = assay: forskolin induced PKAcat-GFP translocation quantified by extraction procedure, FLIPR; assay type: cell-based; conditions: Homo sapiens
Protocol: Upon increase in cellular cAMP (e.g. by stimulation of adenylate cyclase activity by forskolin) PKAcat dissociates from its regulatory subunits and spots “dissolves” into the cytosol. The total GFP intensity measured after removing cytosolic PKAcat-GFP through the extraction procedure is indicative of the level of non-activated, non-dissociated PKAcat.
In this example the extraction procedure is used to quantify a forskolin dose response in a PKAcat-GFP assay.
Cells are treated with forskolin in various conc. for 15 min. (remove spots). Cells are extracted (Formalin 0.2%/Triton-x 0.2%). Signal is read in FLIPR.
Dose response on the effect of forskolin to stimulate PKA translocation.

[1] = target: T1, HSPDE4A4-SosA anchor probe and hGrb2-EGFP detectable probe (Homo sapiens, UniProt P27815+Q07890); assay: redistribution trap: CHO cells co-transfected with HSPDE4A4-SosA anchor probe and hGrb2-EGFP detectable probe; assay type: cell-based; conditions: 10 μM RP73401 for 75 minutes in presence of 10 micromolar rolipram
T1 construct: expressed in transfected cells; host or cells: CHO
Description: Sos is a guanine nucleotide exchange factor responsible for activation Ras-like GTPases, Grb2 an adaptor component responsible for recuiting Sos to the activated receptor. In this example the anchor probe is based on HSPDE4A4. CHO cells are stably co-transfected with anchor probe HSPDE4A4-SosA and “detectable” probe hGrb2-EGFP as described in Example 2 and Example 3. The anchor probe is selected for with zeocin, and the detectable probe with neomycin (G418). […] The transfected cells are a mixed non-clonal population.
The transfected cells are a mixed non-clonal population.

[2] = target: T2, Cys1 domain of PKCgamma (Cys1-EGFP) (Homo sapiens, UniProt P05129); assay: redistribution of Cys1-EGFP to the plasma membrane in CHO cells; assay type: cell-based; conditions: 100 nM PMA, 5 minutes
T2 construct: the 90 N-terminal amino acids of human PKCgamma (the Cys1 domain); expressed in transfected cells; host or cells: CHO
Protocol: Time-lapse images of CHO cells expressing Cys1-EGFP, the fusion of EGFP to the C-terminal of the cys1 domain from human protein kinase C isoform gamma, before (a) and after 5 minutes treatment with 100 nM PMA.

[3] = target: T3, Cys1-hGrb2 anchor probe and EGFP-Sos-Cterm detectable probe (Homo sapiens, UniProt P05129+P62993); assay: redistribution trap: CHO cells expressing Cys1-hGrb2 anchor probe and EGFP-Sos-Cterm detectable probe; assay type: cell-based; conditions: 100 nM PMA, 5 minutes
T3 construct: the 90 N-terminal amino acids of human PKCgamma (the Cys1 domain); expressed in transfected cells; host or cells: CHO
Protocol: (§1) This example describes the creation of another cell line suitable for screening compounds against the interaction between Grb2 and the C-terminal sequence of Sos (amino acids 1067 to 1332 of Sos). This is the same interaction pair described in Example 6, except that the anchor probe is based upon the Cys1 domain of protein kinase C isoform gamma, and therefore locates in unstimulated cells throughout the cytoplasm and nucleus. When these cells are treated with 100 nM PMA the anchor probe redistributes to the plasma membrane, and if an interaction occurs between anchor and detectable probes, the GFP fluorescence will also be seen to redistribute to the plasma membrane. […] Treatment with PMA is used to confirm that an interaction between anchor and detectable probes occurs in this system, since redistribution of fluorescence to the plasma membrane can only occur if interaction of the two probes has first taken place. This can be checked in CHO cells transfected with EGFP-Sos-Cterm alone, where PMA has no effect on the distribution of fluorescence.
(§2) CHO cells are stably co-transfected with the anchor probe Cys1-hGrb2 and the GFP-labelled detectable probe EGFP-Sos-Cterm as described in Example 2 and Example 6. […] The majority of cells in before PMA treatment have a rather general cytoplasmic and nuclear distribution of fluorescence. […]

[4] = target: T4, Cys1-hGrb2 anchor probe and EGFP-Sos-Cterm detectable probe (Homo sapiens, UniProt P62993); assay: as above; assay type: cell-based; conditions: control cells with EGFP-Sos-Cterm alone, PMA
T4 construct: the 90 N-terminal amino acids of human PKCgamma (the Cys1 domain); expressed in transfected cells; host or cells: CHO
Protocol: as §1, §2

[5] = system: CHO cells stably expressing HSPDE4A4B-GFP; assay: cellular cAMP content (kit RPA538) in CHO cells stably expressing HSPDE4A4B-GFP; assay type: cell-based, Chinese hamster; conditions: rolipram 0.03 μM to 3 μM, 16 to 18 hours
Protocol: (§3) After the incubation period, cAMP content is measured using a commercial kit from Amersham-Pharmacia Biotech, kit # RPA538, according to the manufacturers instructions.
(§4) The amount of cAMP/well was calculated using regression analysis from a cAMP standrad curve, as recommended by the manufacturers of the assay kit.
(§5) After the incubation period, cAMP content is measured using a commercial kit from Amersham-Pharnacia Biotech, kit # RPA538, according to the manufacturers instructions.
CHO cells stably expressing HSPDE4A4B-GFP (see Example 2), and untransfected CHO cells are seeded into individual wells of a 96-well microtiter plate at a density of 1.2×10^5 cells/well, and cultured for 16 to 18 hours in HAM F-12 medium with glutamax, 100 μg penicillin-streptomycin mixture ml^−1 and 10% FBS. […] After the treatment period, cAMP content is measured using a commercial kit from Amersham-Pharmacia Biotech, kit # RPA538, according to the manufacturers instructions.

untransfected CHO cells = assay: cellular cAMP content (kit RPA538) in untransfected CHO cells; assay type: cell-based, Chinese hamster
Protocol: as §3, §4, §5
CHO cells stably expressing HSPDE4A4B-GFP (see Example 2), and untransfected CHO cells are seeded into individual wells of a 96-well microtiter plate at a density of 1.2×10^5 cells/well, and cultured for 16 to 18 hours in HAM F-12 medium with glutamax, 100 μg penicillin-streptomycin mixture ml^−1 and 10% FBS. After 16 to 18 hours incubation, cells are treated for 60 minutes with various concentrations of forskolin. After the treatment period, cAMP content is measured using a commercial kit from Amersham-Pharmacia Biotech, kit # RPA538, according to the manufacturers instructions.

PDE4A4 = PDE4A4 (Homo sapiens, UniProt P27815); assay: formation of dense aggregates (spots) of PDE4A4 in transfected CHO cells; conditions: read-out: EC50 for formation of dense PDE4A4 aggregates (spots) in the cytoplasm
Chain of PDE4A4 (P27815 whole entry): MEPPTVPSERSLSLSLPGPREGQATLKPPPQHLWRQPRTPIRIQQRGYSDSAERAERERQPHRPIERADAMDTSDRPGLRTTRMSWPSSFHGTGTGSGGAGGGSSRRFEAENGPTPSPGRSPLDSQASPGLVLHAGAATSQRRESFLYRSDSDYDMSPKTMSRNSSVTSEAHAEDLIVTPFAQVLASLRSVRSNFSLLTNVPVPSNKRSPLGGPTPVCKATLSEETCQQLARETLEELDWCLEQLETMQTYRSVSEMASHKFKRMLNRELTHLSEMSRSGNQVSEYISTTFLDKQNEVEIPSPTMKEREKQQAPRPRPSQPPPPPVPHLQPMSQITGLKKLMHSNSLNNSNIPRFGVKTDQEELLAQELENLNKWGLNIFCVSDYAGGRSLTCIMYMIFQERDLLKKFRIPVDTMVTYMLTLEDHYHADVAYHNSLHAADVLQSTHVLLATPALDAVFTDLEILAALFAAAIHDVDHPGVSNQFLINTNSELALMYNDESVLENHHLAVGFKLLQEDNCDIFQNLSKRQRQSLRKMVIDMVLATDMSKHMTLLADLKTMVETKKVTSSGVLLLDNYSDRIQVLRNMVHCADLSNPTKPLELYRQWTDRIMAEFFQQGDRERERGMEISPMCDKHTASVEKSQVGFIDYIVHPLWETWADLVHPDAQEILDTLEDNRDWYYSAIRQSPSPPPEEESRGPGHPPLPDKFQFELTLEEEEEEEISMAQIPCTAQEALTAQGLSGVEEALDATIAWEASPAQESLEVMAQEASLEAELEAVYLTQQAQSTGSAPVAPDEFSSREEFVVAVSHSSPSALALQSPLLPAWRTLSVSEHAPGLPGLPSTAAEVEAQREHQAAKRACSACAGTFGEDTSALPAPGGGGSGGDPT
Protocol: The amount of fluorescent spots and other accumulations of a transfected probe in a population of cells can be imaged and quantified in an automated fashion to yield a measure of mean number of spots per cell. For this purpose cells are cultured to near 80% to 90% confluence in coverglass chambers or plastic 96-well plates, given the relevant treatment and allowed to respond. At the end of the response period, cells are chemically fixed in 4% formaldehyde buffer (Lillies fixative buffer, pH7.4: Bie and Berntsen A/S, Denmark) for 30 minutes to 2 hours, and then washed three times in phosphate buffered saline (PBS, Life Technologies, Denmark). An alternative simultaneous fixation+permeabilisation method, useful to remove non-localised (i.e. mobile) GFP probe from the cytoplasm, involves a single fixation process incorporating 0.4% to 2% formaldehyde buffer (10% to 50% strength Lillies fixative) plus 0.2% to 1% Triton X-100. The actual concentrations used need to be optimised for the cell type being used; for CHO cells 2% formaldehyde+1% Triton X-100 gives excellent results. The combined fixative+detergent are applied to the cells for 10 to 20 minutes at room temperature. Cells are then washed three times with phosphate buffered saline. […] Fluorescence illumination comes from a 100 W HBO lamp. […]

T1 sequence (P27815+Q07890 fused): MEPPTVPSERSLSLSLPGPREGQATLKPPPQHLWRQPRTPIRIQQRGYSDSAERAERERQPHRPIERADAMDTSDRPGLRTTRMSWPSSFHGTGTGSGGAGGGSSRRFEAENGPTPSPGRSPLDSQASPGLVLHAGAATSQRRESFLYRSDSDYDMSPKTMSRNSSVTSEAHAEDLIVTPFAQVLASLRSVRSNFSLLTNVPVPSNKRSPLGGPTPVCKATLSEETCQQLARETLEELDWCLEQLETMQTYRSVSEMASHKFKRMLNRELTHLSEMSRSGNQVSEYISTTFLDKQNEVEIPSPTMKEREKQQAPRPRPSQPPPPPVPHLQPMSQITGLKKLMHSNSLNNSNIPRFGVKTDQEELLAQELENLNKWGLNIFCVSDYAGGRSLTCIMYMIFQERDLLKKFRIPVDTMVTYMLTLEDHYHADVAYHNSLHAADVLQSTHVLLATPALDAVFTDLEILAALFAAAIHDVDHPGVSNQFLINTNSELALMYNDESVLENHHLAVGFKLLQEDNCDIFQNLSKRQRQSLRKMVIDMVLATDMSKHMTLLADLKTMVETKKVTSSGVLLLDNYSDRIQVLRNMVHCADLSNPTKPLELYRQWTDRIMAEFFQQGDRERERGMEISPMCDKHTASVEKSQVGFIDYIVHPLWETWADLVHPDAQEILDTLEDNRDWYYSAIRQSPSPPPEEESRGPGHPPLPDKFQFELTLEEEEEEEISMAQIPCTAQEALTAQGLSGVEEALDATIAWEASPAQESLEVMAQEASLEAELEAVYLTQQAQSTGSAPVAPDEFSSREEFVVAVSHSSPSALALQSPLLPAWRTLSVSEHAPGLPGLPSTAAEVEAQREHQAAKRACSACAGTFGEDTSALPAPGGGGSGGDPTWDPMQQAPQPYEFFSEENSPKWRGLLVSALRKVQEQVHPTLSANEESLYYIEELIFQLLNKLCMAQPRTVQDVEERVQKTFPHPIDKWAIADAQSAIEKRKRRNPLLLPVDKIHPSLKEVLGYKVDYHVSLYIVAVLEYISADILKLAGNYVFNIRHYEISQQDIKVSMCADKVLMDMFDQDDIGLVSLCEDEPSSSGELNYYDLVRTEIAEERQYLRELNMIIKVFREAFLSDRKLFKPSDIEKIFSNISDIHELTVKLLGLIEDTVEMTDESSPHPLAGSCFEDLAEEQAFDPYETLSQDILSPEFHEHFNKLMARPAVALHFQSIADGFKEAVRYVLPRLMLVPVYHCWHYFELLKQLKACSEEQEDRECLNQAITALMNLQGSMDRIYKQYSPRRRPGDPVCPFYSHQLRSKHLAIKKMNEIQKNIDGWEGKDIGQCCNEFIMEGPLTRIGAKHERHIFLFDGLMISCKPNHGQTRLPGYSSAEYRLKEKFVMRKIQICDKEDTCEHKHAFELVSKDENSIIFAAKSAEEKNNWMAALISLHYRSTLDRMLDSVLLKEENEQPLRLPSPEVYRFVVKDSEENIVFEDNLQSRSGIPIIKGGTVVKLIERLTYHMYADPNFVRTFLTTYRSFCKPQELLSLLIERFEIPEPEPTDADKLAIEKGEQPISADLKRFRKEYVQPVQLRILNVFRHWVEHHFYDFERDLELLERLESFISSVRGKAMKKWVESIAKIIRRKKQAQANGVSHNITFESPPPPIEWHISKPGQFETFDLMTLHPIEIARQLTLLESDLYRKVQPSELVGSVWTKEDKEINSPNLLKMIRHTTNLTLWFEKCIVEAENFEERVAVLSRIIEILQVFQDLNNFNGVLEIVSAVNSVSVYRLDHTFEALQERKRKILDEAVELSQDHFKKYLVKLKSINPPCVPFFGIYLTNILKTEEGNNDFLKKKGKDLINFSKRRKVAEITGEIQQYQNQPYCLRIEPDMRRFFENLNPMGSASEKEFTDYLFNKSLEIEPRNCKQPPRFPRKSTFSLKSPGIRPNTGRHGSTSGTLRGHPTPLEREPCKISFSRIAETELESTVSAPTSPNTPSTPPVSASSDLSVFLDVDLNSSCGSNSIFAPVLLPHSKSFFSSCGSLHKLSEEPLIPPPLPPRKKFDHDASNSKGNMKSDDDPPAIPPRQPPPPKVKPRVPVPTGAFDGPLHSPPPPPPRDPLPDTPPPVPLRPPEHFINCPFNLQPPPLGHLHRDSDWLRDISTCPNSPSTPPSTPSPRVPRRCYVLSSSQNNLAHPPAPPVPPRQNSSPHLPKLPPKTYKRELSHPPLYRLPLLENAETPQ
T1 sequence (P62993 whole entry partner): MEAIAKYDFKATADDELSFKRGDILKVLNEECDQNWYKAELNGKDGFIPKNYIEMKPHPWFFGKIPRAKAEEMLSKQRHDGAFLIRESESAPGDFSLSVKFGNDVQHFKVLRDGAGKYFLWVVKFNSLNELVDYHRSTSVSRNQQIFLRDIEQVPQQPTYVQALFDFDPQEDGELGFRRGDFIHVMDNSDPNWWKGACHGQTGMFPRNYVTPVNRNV
T4 sequence (P62993 whole entry, looked up, the tested form may be a part): as the sequence (P62993 whole entry partner) above

SMILES: C=C[C@@]1(C)CC(=O)[C@]2(O)[C@@]3(C)[C@@H](O)CCC(C)(C)[C@@H]3[C@H](O)[C@H](OC(C)=O)[C@@]2(C)O1 [forskolin]
- EC50 (PKAcat-GFP; 0.25 h, forskolin 15 min, extraction Formalin 0.2%/Triton-x 0.2%, FLIPR, read-out: ED50 of forskolin dose response in PKAcat-GFP assay): ~3 µM
- EC50 (PKAcat-GFP; FIG. 18 dose response, read-out: calculated EC50 for forskolin to stimulate PKA translocation): 3.28 µM

SMILES: COc1ccc(C(=O)Nc2c(Cl)cncc2Cl)cc1OC1CCCC1 [RP73401, Piclamilast]
- effect on rolipram-induced GFP-bright spots [1]: spots disappear; also recorded: dissolves rolipram-induced spots

SMILES: CCCCCCCCCCCCCC(=O)O[C@@H]1[C@@H](C)[C@@]2(O)[C@@H](C=C(CO)C[C@]3(O)C(=O)C(C)=C[C@@H]23)[C@@H]2C(C)(C)[C@]12OC(C)=O [PMA, phorbol-12-myristate-13-acetate]
- redistribution of Cys1-EGFP [2]: redistributes from the cytoplasm and nucleus to the plasma membrane
- redistribution of EGFP-Sos-Cterm fluorescence [3]: measurable shift in fluorescence to the plasma membrane
- distribution of fluorescence in CHO cells transfected with EGFP-Sos-Cterm alone [4]: no effect

SMILES: COc1ccc(C2CNC(=O)C2)cc1OC1CCCC1 (stereo not shown) [rolipram]
- cellular cAMP concentration, rolipram treatment [5]: no appreciable increase
- cellular cAMP, rolipram 10 μM (untransfected CHO cells; 10 μM rolipram, probably not significant): slight rise
- cellular cAMP concentration, rolipram treatment (untransfected CHO cells; rolipram 0.03 μM to 3 μM, 16 to 18 hours): no appreciable increase

SMILES: O=c1c2cccnc2n(-c2cccc([N+](=O)[O-])c2)c(=O)n1Cc1ccncc1 [RS25344]
- EC50 (PDE4A4): 0.02 µM
